Assay results as given in US9371281B2, “Indole derivatives as inhibitors of histone deacetylase” (Pharmacyclics LLC, priority 2006, dated 2016).
“Also recorded” adds a separate entry of the source. One block for each compound: values may come before it.

Legend:
[1] = test system: Cytochrome C translocation in Jurkat cells; test: Cytochrome C translocation, Western blotting of mitochondrial and cytosolic fractions; assay type: cell-based; conditions: 12 or 24 hours
[2] = test system: HDAC8 protein expression; test: Western blot of HDAC8 after 24 hr treatment in Jurkat cells
Text: (§1) Western blot of HDAC8 & HDAC1 after 24 hr treatment in Jurkat cells were obtained.

[3] = test system: Ovcar-3 (ovarian); test: Apoptosis in solid tumor cells, Annexin V assay; assay type: cell-based
[4] = test system: MCF-7 (breast); test: Apoptosis in solid tumor cells, Annexin V assay; assay type: cell-based
[5] = test system: PC3 (prostate); test: Apoptosis in solid tumor cells, Annexin V assay; assay type: cell-based
[6] = test system: A549 (lung); test: Apoptosis in solid tumor cells, Annexin V assay; assay type: cell-based
[7] = test system: Jurkat cells; test: Compound 23 induced apoptosis with Ca2+ effectors; assay type: cell-based
Text: […]. […] […].

[8] = test system: HCT116 (colon); test: Apoptosis in solid tumor cells, Annexin V assay; assay type: cell-based, human
[9] = test system: Jurkat; test: Apoptosis in T-cell lines, Annexin-V positive cells by flow cytometry; assay type: cell-based; conditions: 3 Day dose
[10] = test system: J.γ1; test: as above; assay type: cell-based; conditions: 3 Day dose
[11] = test system: U87 (glioma); test: Apoptosis in solid tumor cells, Annexin V assay; assay type: cell-based
[12] = test system: IL-1b secretion in THP-1 monocyte cell line; conditions: LPS, FIG. 12
[13] = test system: J.RT3-T.5; test: Apoptosis in T-cell lines, Annexin-V positive cells by flow cytometry; assay type: cell-based; conditions: 3 Day dose
[14] = test system: RKO (colon); test: Apoptosis in solid tumor cells, Annexin V assay; assay type: cell-based
[15] = test system: P116; test: Apoptosis in T-cell lines, Annexin-V positive cells by flow cytometry; assay type: cell-based; conditions: 3 Day dose
[16] = test system: IL-1b secretion in human PBMCs; test: Inhibition of IL-1b secretion in human PBMCs; assay type: cell-based; conditions: FIG. 11
Experimental: Lipopolysaccharide (LPS, 25 ng/ml) is then added to stimulate the cells for another 16 hour incubation period in 5% CO2. IL-1b cytokine levels in the conditioned medium are then quantitated using a sandwich ELISA kit. Compounds are screened at 10, 1, 0.1, 0.01 and 0.001 μM. These same concentrations are concurrently applied to a separate group of treated cells and evaluated for possible compound-induced cytotoxicity.

[17] = test system: normal human peripheral blood mononuclear cells; test: Cell proliferation, Alamar Blue assay (FIG. 9B); assay type: cell-based; conditions: PBMCs, 24 hours
[18] = test system: J.RT3-T.5; test: Growth inhibition in T-cell lines (Table 6); assay type: cell-based; conditions: 72 h, J.RT3-T.5 (TCR-β chain deficient), 3 Day dose
[19] = test system: HDAC1 levels; conditions: Jurkat cells, 24 hr treatment, Western blot
Text: as §1

[20] = test system: P116; test: Growth inhibition in T-cell lines (Table 6); assay type: cell-based; conditions: 72 h, P116 (ZAP-70 deficient), 3 Day dose
[21] = test system: Jurkat; test: Growth inhibition in T-cell lines (Table 6); assay type: cell-based; conditions: Homo sapiens, 72 h, 3 Day dose
[22] = test system: J.γ1; test: Growth inhibition in T-cell lines (Table 6); assay type: cell-based; conditions: 72 h, J.γ1 (Phospholipase C-γ1 deficient), 3 Day dose

SMILES: COc1ccc(Cn2ccc3ccc(C(=O)NO)cc32)cc1 [Compound 23, 1-(4-methoxy-phenylmethyl)-1H-indole-6-carboxylic acid hydroxyamide]
Cytochrome C translocation from mitochondria to cytosol [1]: Cytochrome C translocation from mitochondria to cytosol
HDAC8 protein levels [2]: affected
% apoptosis at 20 μM (Annexin V assay) [3]: 15%
% apoptosis at 20 μM (Annexin V assay) [4]: 0%
% apoptosis at 20 μM (Annexin V assay) [5]: 0%
% apoptosis at 20 μM (Annexin V assay) [6]: 0%
compound 23 induced apoptosis with Ca2+ effector thapsigargin ([7]; compound 23=5 μM, thapsigargin=0.2 μM): enhanced
compound 23 induced apoptosis with Ca2+ chelator BAPTA-AM ([7]; compound 23=10 μM, BAPTA 0.5 μM): inhibited
% apoptosis at 20 μM (Annexin V assay) [8]: 3%
Apoptosis at 5 μM (%) ([9]; 5 μM): 43%
Apoptosis at 5 μM (%) ([10]; J.γ1, 5 μM): 12%
% apoptosis at 20 μM (Annexin V assay) [11]: 0%
IL-1b secretion [12]: reduction of IL-1b secretion
Apoptosis at 5 μM (%) ([13]; J.RT3-T.5, 5 μM): 67%
% apoptosis at 20 μM (Annexin V assay) [14]: 0%
Apoptosis at 5 μM (%) ([15]; P116, 5 μM): 82%
IL-1b secretion [16]: inhibition of IL-1b secretion
effect on growth [17]: failed to inhibit the growth; also recorded: does not inhibit growth

GI50 [21]: 130 nM
SMILES: CN(C)Cc1c(C(=O)NCCOc2ccc(C(=O)NO)cc2)oc2ccccc12 [PCI-24781, reference compound]
HDAC8 protein levels [2]: affected
GI50 [18]: 140 nM
HDAC1 levels [19]: decreased
GI50 [20]: 190 nM
Apoptosis at 0.125 μM (%) ([9]; 0.125 μM): 48%
Apoptosis at 0.125 μM (%) ([10]; J.γ1, 0.125 μM): 18%
GI50 [22]: 140 nM
Apoptosis at 0.125 μM (%) ([13]; J.RT3-T.5, 0.125 μM): 32%
Apoptosis at 0.125 μM (%) ([15]; P116, 0.125 μM): 76%
